# Test results reported in patent US20230303553A1, “CDK6/DYRK2 DUAL-TARGET INHIBITOR, AND PREPARATION METHOD THEREFOR AND USE THEREOF” (JIANGSU TASLY DIYI PHARMACEUTICAL CO., LTD., priority 2021, published 2023).
# Where a name gives a salt, the structure may show the parent alone.
# Target: CDK6 kinase (Homo sapiens (Human), UniProt Q00534)
# Experiment: CDK6 kinase activity, Lance Ultra TR-FRET
# Format: biochemical
# Sequence of CDK6 kinase (Q00534 whole entry): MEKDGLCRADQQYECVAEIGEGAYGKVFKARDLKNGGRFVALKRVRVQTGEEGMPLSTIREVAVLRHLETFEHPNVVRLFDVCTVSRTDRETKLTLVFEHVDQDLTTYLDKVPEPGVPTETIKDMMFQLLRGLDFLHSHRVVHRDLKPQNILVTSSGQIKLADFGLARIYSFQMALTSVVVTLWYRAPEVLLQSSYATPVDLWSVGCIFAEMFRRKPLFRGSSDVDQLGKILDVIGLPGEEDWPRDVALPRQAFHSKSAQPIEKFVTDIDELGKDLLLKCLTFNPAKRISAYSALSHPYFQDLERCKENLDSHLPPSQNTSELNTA
# Sequence of CDK6 kinase (P24385 whole entry partner): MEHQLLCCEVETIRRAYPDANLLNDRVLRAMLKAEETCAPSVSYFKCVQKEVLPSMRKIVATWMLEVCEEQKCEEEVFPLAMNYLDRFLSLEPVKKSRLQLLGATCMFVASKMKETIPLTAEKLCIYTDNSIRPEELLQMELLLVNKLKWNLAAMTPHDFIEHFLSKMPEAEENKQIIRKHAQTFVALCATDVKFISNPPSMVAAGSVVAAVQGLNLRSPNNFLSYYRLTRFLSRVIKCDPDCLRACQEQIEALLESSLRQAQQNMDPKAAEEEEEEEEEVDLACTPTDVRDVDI
row,IC50,Compound
1,144 nM,"CCN1CCN(C(=O)c2ccc(Nc3ncc(F)c(-c4ccc5ncsc5c4)n3)nc2)CC1 [Example 1, (6-((4-(benzothiazole-6-yl)-5-fluoropyrimidine-2-yl)amino)pyridine-3-yl)(4-ethylpiperazine-1-yl)ketone]"
2,244 nM,"CCN1CCN(Cc2ccc(Nc3ncc(F)c(-c4ccc5ncsc5c4)n3)nc2)CC1 [Example 2, 4-(benzothiazole-6-yl)-N-(5-((4-ethylpiperazine-1-yl)methyl)pyridine-2-yl)-5-fluoropyrimidine-2-amine]"
3,272 nM,"CC(C)(C)OC(=O)N1CCN(Cc2ccc(Nc3ncc(F)c(-c4ccc5ncsc5c4)n3)nc2)CC1 [Example 3, tert-butyl 4-((6-((4-(benzothiazole-6-yl)-5-fluoropyrimidine-2-yl)amino)pyridine-3-yl)methyl)piperazine-1-carboxylate]"
4,268 nM,"Fc1cnc(Nc2ccc(CN3CCNCC3)cn2)nc1-c1ccc2ncsc2c1 [Example 4, 4-(benzothiazole-6-yl)-5-fluoro-N-(5-(piperazine-1-ylmethyl)pyridine-2-yl)pyrimidine-2-amine hydrochloride]"
5,> 10000 nM,"CC(C)(C)OC(=O)N1CCN(c2ccc(Nc3ncc(F)c(-c4ccc5ncsc5c4)n3)nc2)CC1 [Example 7, tert-butyl 4-(6-((4-(benzothiazole-6-yl)-5-fluoropyrimidine-2-yl)amino)pyridine-3-yl)piperazine-1-carboxylate]"
6,169 nM,"CCOC(=O)N1CCN(Cc2ccc(Nc3ncc(F)c(-c4ccc5ncsc5c4)n3)nc2)CC1 [Example 10, ethyl 4-((6-((4-(benzothiazole-6-yl)-5-fluoropyrimidine-2-yl)amino)pyridine-3-yl)methyl)piperazine-1-carboxylate]"
7,86 nM,"Cc1nc2ccc(-c3nc(Nc4ccc(C(=O)N5CCN(C(=O)OC(C)(C)C)CC5)cn4)ncc3F)cc2s1 [Example 16, tert-butyl 4-(6-((5-fluoro-4-(2-methylbenzothiazole-6-yl)pyrimidine-2-yl)amino)nicotinoyl)piperazine-1-carboxylate]"
8,254 nM,"CCN1CCN(Cc2ccc(Nc3ncc(F)c(-c4ccc5nc(N(C)C)sc5c4)n3)nc2)CC1 [Example 30, 6-(2-((5-((4-ethylpiperazine-1-yl)methyl)pyridine-2-yl)amino)-5-fluoropyrimidine-4-yl)-N,N-dimethylbenzothiazole-2-amine]"
9,> 10000 nM,"CN(C)c1nc2ccc(-c3nc(Nc4ccc(CN5CCN(C(=O)OC(C)(C)C)CC5)cn4)ncc3F)cc2s1 [Example 32, tert-butyl 4-((6-((4-(2-(dimethylamino)benzothiazole-6-yl)-5-fluoropyrimidine-2-yl)amino)pyridine-3-yl)methyl)piperazine-1-carboxylate]"
10,59 nM,"CN(C)c1nc2ccc(-c3nc(Nc4ccc(CN5CCNCC5)cn4)ncc3F)cc2s1 [Example 33, 6-(5-fluoro-2-((5-(piperazine-1-ylmethyl)pyridine-2-yl)amino)pyrimidine-4-yl)-N,N-dimethylbenzothiazole-2-amine hydrochloride]"
11,> 10000 nM,"CN(C)c1nc2ccc(-c3nc(Nc4ccc(C(=O)N5CCN(C(=O)OC(C)(C)C)CC5)cn4)ncc3F)cc2s1 [Example 34, tert-butyl 4-(6-((4-(2-(dimethylamino)benzothiazole-6-yl)-5-fluoropyrimidine-2-yl)amino)nicotinoyl)piperazine-1-carboxylate]"
12,41 nM,"CN(C)c1nc2ccc(-c3nc(Nc4ccc(C(=O)N5CCNCC5)cn4)ncc3F)cc2s1 [Example 35, (6-((4-(2-(dimethylamino)benzothiazole-6-yl)-5-fluoropyrimidine-2-yl)amino)pyridine-3-yl)(piperazine-1-yl)ketone hydrochloride]"
13,142 nM,"CC(C)N1CCN(Cc2ccc(Nc3ncc(F)c(-c4ccc5nc(N(C)C)sc5c4)n3)nc2)CC1 [Example 36, 6-(5-fluoro-2-((5-((4-isopropylpiperazine-1-yl)methyl)pyridine-2-yl)amino)pyrimidine-4-yl)-N,N-dimethylbenzothiazole-2-amine]"
14,> 10000 nM,"CN(C)c1nc2ccc(-c3nc(Nc4ccc(CN5CCN(S(C)(=O)=O)CC5)cn4)ncc3F)cc2s1 [Example 37, 6-(5-fluoro-2-((5-((4-(methanesulfonyl)piperazine-1-yl)methyl)pyridine-2-yl)amino)pyrimidine-4-yl)-N,N-dimethylbenzothiazole-2-amine]"
15,> 1000 nM,"CCOC(=O)N1CCN(Cc2ccc(Nc3ncc(F)c(-c4ccc5nc(N(C)C)sc5c4)n3)nc2)CC1 [Example 38, ethyl 4-((6-((4-(2-(dimethylamino)benzothiazole-6-yl)-5-fluoropyrimidine-2-yl)amino)pyridine-3-yl)methyl)piperazine-1-carboxylate]"
16,> 1000 nM,"CN(C)c1nc2ccc(-c3nc(Nc4ccc(N5CCN(C(=O)OC(C)(C)C)CC5)cn4)ncc3F)cc2s1 [Example 40, tert-butyl 4-(6-((4-(2-(dimethylamino)benzothiazole-6-yl)-5-fluoropyrimidine-2-yl)amino)pyridine-3-yl)piperazine-1-carboxylate]"
17,61 nM,"CN(C)c1nc2ccc(-c3nc(Nc4ccc(N5CCNCC5)cn4)ncc3F)cc2s1 [Example 41, 6-(5-fluoro-2-((5-(piperazine-1-yl)pyridine-2-yl)amino)pyrimidine-4-yl)-N,N-dimethylbenzothiazole-2-amine hydrochloride]"
18,> 1000 nM,"CCN(CC)c1nc2ccc(-c3nc(Nc4ccc(CN5CCN(C(=O)OC(C)(C)C)CC5)cn4)ncc3F)cc2s1 [Example 44, tert-butyl 4-((6-((4-(2-(diethylamino)benzothiazole-6-yl)-5-fluoropyrimidine-2-yl)amino)pyridine-3-yl)methyl)piperazine-1-carboxylate]"
19,> 10000 nM,"CCN(CC)c1nc2ccc(-c3nc(Nc4ccc(CN5CCN(S(C)(=O)=O)CC5)cn4)ncc3F)cc2s1 [Example 48, N,N-diethyl-6-(5-fluoro-2-((5-((4-(methanesulfonyl)piperazine-1-yl)methyl)pyridine-2-yl)amino)pyrimidine-4-yl)benzothiazole-2-amine]"
20,> 10000 nM,"CCOC(=O)N1CCN(Cc2ccc(Nc3ncc(F)c(-c4ccc5nc(N(CC)CC)sc5c4)n3)nc2)CC1 [Example 49, ethyl 4-((6-((4-(2-(diethylamino)benzothiazole-6-yl)-5-fluoropyrimidine-2-yl)amino)pyridine-3-yl)methyl)piperazine-1-carboxylate]"
21,31 nM,CCN(CC)c1nc2ccc(-c3nc(Nc4ccc(CN5CCN(C(C)C)CC5)cn4)ncc3F)cc2s1 [Example 50]
22,8 nM,"CCN(CC)c1nc2ccc(-c3nc(Nc4ccc(C(=O)N5CCN(C(C)C)CC5)cn4)ncc3F)cc2s1 [Example 51, (6-((4-(2-(diethylamino)benzothiazole-6-yl)-5-fluoropyrimidine-2-yl)amino)pyridine-3-yl)(4-isopropylpiperazine-1-yl)ketone]"

row,Compound,IC50
1,"Fc1cnc(Nc2ccc(N3CCNCC3)cn2)nc1-c1ccc2ncsc2c1 [Example 8, 4-(benzothiazole-6-yl)-5-fluoro-N-(5-(piperazine-1-yl)pyridine-2-yl)pyrimidine-2-amine hydrochloride]",129 nM

# Target: DYRK2 kinase (Homo sapiens (Human), UniProt Q92630)
# Sequence (Q92630 whole entry): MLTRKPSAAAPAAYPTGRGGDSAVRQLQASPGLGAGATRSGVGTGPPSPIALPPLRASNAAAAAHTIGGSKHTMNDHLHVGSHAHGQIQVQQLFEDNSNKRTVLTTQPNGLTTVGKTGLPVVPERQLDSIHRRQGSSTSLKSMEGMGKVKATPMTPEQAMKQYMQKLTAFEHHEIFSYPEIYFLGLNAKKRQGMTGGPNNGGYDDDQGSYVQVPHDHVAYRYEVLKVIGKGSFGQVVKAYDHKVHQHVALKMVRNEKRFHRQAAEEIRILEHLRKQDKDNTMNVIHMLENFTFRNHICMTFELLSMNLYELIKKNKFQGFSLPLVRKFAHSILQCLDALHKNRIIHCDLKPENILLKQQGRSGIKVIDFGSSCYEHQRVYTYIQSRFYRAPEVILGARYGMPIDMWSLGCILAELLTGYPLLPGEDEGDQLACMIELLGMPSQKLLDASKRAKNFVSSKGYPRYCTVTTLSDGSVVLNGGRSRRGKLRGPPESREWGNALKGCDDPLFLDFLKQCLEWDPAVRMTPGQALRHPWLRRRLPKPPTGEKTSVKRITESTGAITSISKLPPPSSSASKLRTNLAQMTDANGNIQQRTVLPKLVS
# Experiment: DYRK2 kinase activity, 33P-ATP / Woodtide substrate
# Format: biochemical
row,Compound,IC50
1,"Fc1cnc(Nc2ccc(N3CCNCC3)cn2)nc1-c1ccc2ncsc2c1 [Example 8, 4-(benzothiazole-6-yl)-5-fluoro-N-(5-(piperazine-1-yl)pyridine-2-yl)pyrimidine-2-amine hydrochloride]",85 nM
